The CheMixHub viscosity set
Several values for one entry are separate records, joined by “and”; a condition that tells them apart may be missing. Equal entries are not always repeated.

Test: xn = mol fraction of the nth substance listed

O=CO + CCCC(C)=O
viscosity [mPa·s], 101 kPa
Details | x1 = 0.1002 | x1 = 0.1998 | x1 = 0.3016 | x1 = 0.3992 | x1 = 0.4881 | x1 = 0.5974 | x1 = 0.7186 | x1 = 0.8392 | x1 = 0.8701
298.15 K | 0.5043 | 0.5479 | 0.6037 | 0.6689 | 0.7348 | 0.8418 | 1.003 | 1.198 | 1.262
308.15 K | 0.4519 | 0.4876 | 0.5327 | 0.586 | 0.6424 | 0.7294 | 0.8532 | 1.011 | 1.058
318.15 K | 0.4015 | 0.4344 | 0.4713 | 0.5146 | 0.5589 | 0.6331 | 0.7325 | 0.8607 | 0.8982

CCCCCCCCCCCCCCCC[N+](C)(C)CCOCCO.Cc1cc(Cl)ccc1OCC(=O)[O-] + CCCCCCCCCCCCCCCC[N+](C)(C)CCOCCO.Cc1cc(Cl)ccc1O[C@H](C)C(=O)[O-]
100 kPa, x1 = 0.58
Details | viscosity
293.15 K | 4543 mPa·s and 4543 mPa·s
303.15 K | 1909 mPa·s
313.15 K | 928.5 mPa·s
323.15 K | 493.4 mPa·s

CC(Cl)(Cl)Cl + CCCCCCO
298.15 K, 101.33 kPa
Details | viscosity [mPa·s]
x1 = 0.101 | 3.824
x1 = 0.2 | 3.188
x1 = 0.301 | 2.631
x1 = 0.402 | 2.142
x1 = 0.502 | 1.744
x1 = 0.601 | 1.43
x1 = 0.701 | 1.188
x1 = 0.8 | 1.002

CC(Cl)(Cl)Cl + CCO
viscosity [mPa·s], 101.32 kPa
Details | x2 = 0.1602 | x2 = 0.3002 | x2 = 0.4237 | x2 = 0.5336 | x2 = 0.6318 | x2 = 0.7202 | x2 = 0.8001 | x2 = 0.8728 | x2 = 0.9392
303.15 K | 0.705 | 0.745 | 0.778 | 0.839 | 0.87 | 0.902 | 0.924 | 0.942 | 0.984
313.15 K | 0.614 | 0.669 | 0.683 | 0.71 | 0.745 | 0.761 | 0.784 | 0.807 | 0.819
323.15 K | 0.56 | 0.597 | 0.604 | 0.614 | 0.639 | 0.655 | 0.664 | 0.684 | 0.692

C1CN2CN3CCN(CN1C3)C2 + [2H]O[2H]
viscosity [mPa·s], 101 kPa
Details | x1 = 0.004058 | x1 = 0.008015 | x1 = 0.01192 | x1 = 0.01581 | x1 = 0.02009
293.15 K | 1.263 | 1.307 | 1.389 | 1.485 | 1.602
298.15 K | 1.128 | 1.174 | 1.233 | 1.315 | 1.426
300.15 K | 1.018 | 1.066 | 1.131 | 1.225 | 1.352
305.15 K | 0.918 | 0.975 | 1.042 | 1.133 | 1.251

CC(Cl)(Cl)Cl + Cc1ccc(C)cc1
303.15 K, 101 kPa
Details | viscosity [mPa·s]
x1 = 0.1341 | 0.6079
x1 = 0.2166 | 0.632
x1 = 0.3072 | 0.6566
x1 = 0.4291 | 0.6846
x1 = 0.5112 | 0.6988
x1 = 0.6202 | 0.7113
x1 = 0.69 | 0.7164
x1 = 0.7824 | 0.7206
x1 = 0.8403 | 0.7216
x1 = 0.9044 | 0.7226

C1CCOCC1 + CCCCO
viscosity [mPa·s], 101.3 kPa
Details | x1 = 0.0478 | x1 = 0.0969 | x1 = 0.1984 | x1 = 0.288 | x1 = 0.3973 | x1 = 0.5005 | x1 = 0.6788 | x1 = 0.7023 | x1 = 0.8041 | x1 = 0.9024
298.15 K | 2.294 | 2.056 | 1.662 | 1.426 | 1.222 | 1.087 | 0.931 | 0.9162 | 0.8645 | 0.8316
313.15 K | 1.633 | 1.483 | 1.255 | 1.086 | 0.9459 | 0.8494 | 0.7345 | 0.7252 | 0.6832 | 0.6584
